Four compounds from patent US9051568B2, “Anti-sense microrna expression vectors” (Rutgers, The State University of New Jersey, priority 2008, dated 2015) can be followed below.

The test system of one assay is Sirt1. The assay is described as follows: Sirt1 protein in myocytes by Western blotting. It is filed as cell-based, rat. As to conditions: 40 μM, 24 h. As to the method:
c. […] Protein was then extracted and analyzed by Western blotting.
b. Cultured adult rat cardiac myocytes were treated with miR-199a eraser for 24 h or HPC. Protein was extracted and analyzed by Western blotting for the molecules indicated on the left of each panel (n=3).
(§1) Cellular fractionation and Western blotting—Mitochondria was isolated using ProteoExtract Cytosol/Mitochondria Fractionation Kit (Calbiochem, NJ), according to the manufacturer's protocol. Fifteen μg of protein was separated on a 4% to 20% gradient SDS-PAGE (Criterion gels, Bio-Rad, CA) and transferred onto TransBlot Transfer membrane (Bio-Rad, CA).
On the technique in general: Immunoblotting shows a protein as a band on a membrane.

For a further assay, the system named is miR-199a. The assay is described as follows: Northern blotting of miR-199a in myocytes. As to conditions: 100 μM, 16 h. It is filed as cell-based, rat. The text has this:
g. […] Total RNA was then extracted and analyzed by Northern blotting for the miRNA indicated on the left (n=2).
(§2) Northern blotting—As previously described.

Assay [1] relates to prolyl hydroxylase 2 (PHD2). As to the kind of experiment: PHD2 protein in myocytes by Western blotting. As to conditions: myocytes overexpressing Sirt1, 20 mM. It is filed as cell-based, rat. As to the method:
b. Myocytes were treated as described in (a.) and as indicated in the grid by + signs. Protein was extracted and analyzed by Western blotting (n=3).
d. Myocytes were subjected to 24 h anoxia or HPC, before or after treatment with a control or miR-199a-expressing virus for 24 h where indicated by + signs. Protein was extracted and analyzed by Western blotting for the molecules indicated on the left.
e. Myocytes were treated with a control or Sirt1-overexpressing virus in the absence or presence or 20 mM nicotinamide (NAM). Protein was extracted and analyzed by Western blotting (n=3).
as §1

Another assay relates to cardiocytes. As to the kind of experiment: Cellular outgrowths/branches of cultured cardiocytes. As to conditions: cardiocytes treated with isoproterenol, titin staining. It is filed as cell-based, rat. On the procedure:
Cell cultures and adenovirus Infection—Neonatal cardiac myocytes were prepared from Sprague Dawley rat hearts as previously described, using both pre-plating and percoll gradients for enriching of myocytes. Adult cardiac myocytes were prepared as previously described.
But after 48-72 h in culture extensive cellular outgrowths (4±3 branches/cell) were noticed that varied in length (44±28 μm) depending on the distance between neighboring cells (FIG. 8c). Sprouty, a known inhibitor of branching morphogenesis and neurite outgrowth, is predicted to be a miR-21 target by TargetScanS and PicTar miRNA target prediction software, each using a unique set of algorithms. To confirm its potential in mediating miR-21's branching effects, it was independently knocked down using adenoviral delivered short-hairpin RNA (see FIG. 8e).
The physiological relevance of these miR-21-induced outgrowths were assessed. After treatment of the cells with isoproterenol and staining them with an antibody against the sarcomeric protein titin, cellular outgrowth that were connecting or reaching out to adjacent cells was observed (FIG. 9a). The striated pattern of titin staining reflects the presence of sarcomeres even within these branches. This effect was wide spread in all observed fields (4±3 branches/cell). Impressively, these outgrowths were abrogated by the miR-21 eraser or over-expression of SPRY2 (FIG. 9a). […]

The subject of another assay is SPRY2. As to the kind of experiment: SPRY2 protein in cardiocytes (Western blot, immunostaining). It is filed as cell-based, rat. As to conditions: isoproterenol and β2AR. From the text: Using Western blot analysis down-regulation of endogenous SPRY2 (52±4%) was confirmed upon over-expression of miR-21 for 48 hr (FIG. 8d). Since sprouty negatively regulates erk1/2, phospho-erk1/2 was used as a marker for monitoring changes in Spry2 function that would be regulated by changes in its levels. […] Thus, SPRY2 is a downstream target of miR-21 (could be a direct or indirect target at this juncture) and has limiting cellular concentrations.
The physiological relevance of these miR-21-induced outgrowths were assessed. After treatment of the cells with isoproterenol and staining them with an antibody against the sarcomeric protein titin, cellular outgrowth that were connecting or reaching out to adjacent cells was observed (FIG. 9a). The striated pattern of titin staining reflects the presence of sarcomeres even within these branches. This effect was wide spread in all observed fields (4±3 branches/cell). Impressively, these outgrowths were abrogated by the miR-21 eraser or over-expression of SPRY2 (FIG. 9a). […] Similar results were obtained when cells were treated the a virus over-expressing β2AR (supplementary FIG. 9s). While FIG. 7 confirms that isoproterenol and β2AR induce upregulation of miR-21, FIG. 9b confirms that they also induce 70±22% downregulation of SPRY2 protein (FIG. 9b). […]

The next assay concerns miR-21. As to the kind of experiment: Northern blotting of miR-21 in cardiocytes. As to conditions: isolated rat cardiocytes. Type of assay: cell-based.
Text: as §2
In order to address the role of miR-21 in cardiocytes a 320 nt sequence that encompasses the miR-21 stem-loop was cloned into a recombinant adenovirus (FIG. 8a). A tandem repeat of the anti-sense sequence of mature miR-21 was also cloned under the control of the U6 promoter (FIG. 8a). […] For that reason this construct was dubbed ‘miR-21 eraser’.

On to `Oc1ccc(C=Cc2cc(O)cc(O)c2)cc1` [resveratrol], for which, in the assay on Sirt1, the Sirt1 expression entry is on record as “increase”.
With `Nc1ncnc2c1ncn2[C@@H]1O[C@H](CO)[C@@H](O)[C@H]1O` [adenosine], the miR-199a level result with miR-199a is recorded as “downregulation”.
For the compound `NC(=O)c1cccnc1` [nicotinamide], in assay [1], the “Sirt1-induced knockdown of PHD2” value was “reversed”.
Consider `CC(C)NCC(O)c1ccc(O)c(O)c1` (stereo not drawn) [isoproterenol], for which, in the assay with cardiocytes, the cellular outgrowths amounted to 4±3 branches/cell. For the same compound, the “downregulation of SPRY2 protein” value in the assay on SPRY2 worked out at 70±22%. Further, in the assay with miR-21, the miR-21 level entry is “upregulation”.
